# According to US20090099240A1, “METHODS FOR TREATING ENERGY METABOLISM DISORDERS BY INHIBITING FATTY ACID AMIDE HYDROLASE ACTIVITY” (N.V. Organon, priority 2006, published 2009):
# Legend:
# [1] = system: APOE*3-Leiden transgenic (E3L) mice; experiment: Lipid content of liver (TLC) in E3L mice; format: in vivo, mouse
# Description: (§1) E3L mice were fed a high cholesterol (1% w/w) diet (HC diet) for a period of four weeks. Animals were then matched based on their plasma cholesterol levels, and were divided into five groups, each of which was maintained on an HC diet.
# A reduction of Red Oil O staining in liver generally indicates reduced liver lipid content. We therefore quantified levels of lipids in livers from each animal, as described in Havekes et al. (1987), Biochem. J., 247:739-746; Delsing et al. (2005), J. Cardiovasc. Pharmacol., 45:53-60; and Post et al. (2004), ATVB, 24:768-774. Liver tissue homogenates were prepared. Lipids were extracted, dried under nitrogen, dissolved in chloroform, and spotted onto a channeled 20×20 cm silica gel thin layer chromatography (TLC) plate. Lipids were then separated, TLC plates were warmed up to visualize bands, and bands were quantified using an internal standard as reference.
# [2] = system: APOE*3-Leiden transgenic (E3L) mice; experiment: Total plasma cholesterol in E3L mice; format: in vivo, mouse
# Description: (§2) We assessed the effect of inhibiting FAAH activity on body weight, body fat, triglyceride levels, cholesterol levels in APOE*3-Leiden transgenic (E3L) mice, an animal model of hyperlipidemia. […] See van Vlijmen et al. (1994), J. Clin Invest., 93:1403-1410. Indeed, upon high fat and cholesterol feeding, these mice develop various stages of atherosclerotic lesions depending on plasma total cholesterol levels and resembling those found in humans. See Groot et al. (1996), Arterioscler. Thromb. Vasc. Biol., 16:926-933; Versch ren et al. (2005), Arterioscler. Thromb. Vasc Biol., 25:161-167; and Lutgens et al. (1999), Circulation; 99(2):276-283). Thus, the E3L mouse is a suitable model for the investigation of the efficacy of anti-atherosclerotic drugs.
# as §1
# (§3) Blood samples were collected at days 0, 14, and 28 of the treatment period. At the end of the treatment period, animals were sacrificed, and various tissues and organs were analyzed. Unless otherwise indicated, values are mean±standard deviation (SD).
# [3] = system: APOE*3-Leiden transgenic (E3L) mice; experiment: Oil Red O staining of liver sections (steatosis) in E3L mice; format: in vivo, mouse
# Description: as §1
# In order to examine cellular stress in the liver due to lipid storage (steatosis), we stained frozen liver tissue sections with Oil Red O a fat-soluble diazo dye used to stain for lipids. Digital photomicrographs of liver cross sections were taken for each individual animal (magnification: 20 fold). […]
# [4] = system: APOE*3-Leiden transgenic (E3L) mice; experiment: Plasma adiponectin ELISA in E3L mice; format: in vivo, mouse
# Description: as §1
# We determined plasma adiponectin levels after a four hour fasting period at 0, 14, 28 days, using a mouse-specific adiponectin/Acrp30 ELISA (kit number MRP300 from R&D Systems, Minneapolis, Minn.).
# [5] = system: APOE*3-Leiden transgenic (E3L) mice; experiment: Total plasma triglyceride levels in E3L mice; format: in vivo, mouse
# Description: as §2, §1, §3
# [6] = system: APOE*3-Leiden transgenic (E3L) mice; experiment: Food intake per animal per day in E3L mice; format: in vivo, mouse
# Description: as §2, §1
# [7] = system: APOE*3-Leiden transgenic (E3L) mice; experiment: Body weight in E3L mice on high cholesterol diet; format: in vivo, mouse
# Description: as §2, §1
# [8] = system: APOE*3-Leiden transgenic (E3L) mice; experiment: Organ and tissue weights in E3L mice on high cholesterol diet
# Description: as §2, §1, §3
# [9] = system: APOE*3-Leiden transgenic (E3L) mice; experiment: Plasma alanine aminotransferase (ALAT) activity in E3L mice; format: in vivo, mouse; settings: day 28
# Procedure: as §1
# Levels of plasma alanine aminotransferase (ALAT) were determined on day 28 (table 7). Plasma ALAT is a measure of hepatic stress and increases in plasma ALAT levels are often associated with liver damage. […] Thus, a reduction in plasma ALAT levels is associated with improved liver function.
# [10] = system: APOE*3-Leiden transgenic (E3L) mice; experiment: Plasma leptin ELISA in E3L mice; format: in vivo, mouse
# Description: as §1
# Accordingly, we quantified plasma leptin levels after a four hour fasting period at treatment time points 0, 14, and 28 days using a mouse-specific leptin ELISA or (kit number MOB00 from R&D Systems, Minneapolis, Minn.) according to the guidelines and protocol specified by the manufacturer.
# [11] = system: APOE*3-Leiden transgenic (E3L) mice; experiment: Plasma lipoprotein profiles (size fractionation of pooled plasma) in E3L mice; format: in vivo, mouse; settings: day 28, FIG. 1
# Procedure: as §1
# Lipoprotein profiles were determined in pooled plasma from day 28, as described in Verschuren et al. (2005), Arterioscler. Thromb. Vasc Biol., 25:161-167. An equal amount of plasma per animal was used to prepare a plasma pool for each group. Plasma lipoproteins in each plasma pool were separated by size fractionation. Typically, VLDL, IDL/LDL and HDL lipoproteins are eluted in fractions 4-8, fractions 11-16 and fractions 17-20, respectively.
# [12] = system: APOE*3-Leiden transgenic (E3L) mice; experiment: Plasma ketone body (D-3-hydroxybutyrate) levels in E3L mice; format: in vivo, mouse
# Description: as §1
# We quantified plasma D-3-hydroxybutyrate (b-HBA; ketone bodies) levels were quantified in plasma samples obtained after a 4-hour fasting period at time points t=0, t=2, and t=4 weeks using kits #2940 (b-HBA reagent set) and #2947 (b-HBA control set)) according to the guidelines and protocol specified by the manufacturer (Instruchemie, Delfzijl, The Netherlands).
smiles,measurement,setting,value
"CCCCCCCC/C=C\CCCCCCCC(=O)NCCO [OEA, oleoylethanolamide]","liver cholesterol esters (CE), in words",[1]; compared to the oral vehicle group,significantly increased
same,Lipid Content of Liver: Cholesterol Esters,[1]; end of four-week treatment,^#61 ± 7 ^
same,Lipid Content of Liver: Free Cholesterol,[1]; end of four-week treatment,21 ± 2
same,Lipid Content of Liver: Triglycerides,[1]; end of four-week treatment,94 ± 11
same,Total Plasma Cholesterol,[2]; day 0,13.9 ± 3.4 mM
same,Total Plasma Cholesterol,[2]; day 14,^#16.0 ± 2.9 mM
same,Total Plasma Cholesterol,[2]; day 28,^#15.8 ± 2.7 mM
same,"total plasma cholesterol levels, in words","[2]; days 14 and 28, relative to respective control group",slightly and significantly increased
same,"steatotic (Oil Red O) staining in liver, in words",[3]; compared to the control vehicle group,"small, but significant reduction"
same,"Oil Red O Staining in Liver, Mild-Severe (above 115 relative units)",[3]; end of four-week treatment,*36 ± 5 % of cross-sectional area
same,"Oil Red O Staining in Liver, Severe (above 175 relative units)",[3]; end of four-week treatment,*8 ± 2 % of cross-sectional area
same,Plasma Adiponectin Levels,"[4]; day 0, four hour fasting",12.9 ± 2.8 µg/mL
same,Plasma Adiponectin Levels,"[4]; day 14, four hour fasting",11.3 ± 3.5 µg/mL
same,Plasma Adiponectin Levels,"[4]; day 28, four hour fasting",11.4 ± 2 µg/mL
same,Total Plasma Triglyceride Levels,[5]; day 0,1.5 ± 0.4 mM
same,Total Plasma Triglyceride Levels,[5]; day 14,1.7 ± 0.6 mM
same,Total Plasma Triglyceride Levels,[5]; day 28,*1.3 ± 0.3 mM
same,"total plasma triglyceride levels, in words",[5]; relative to respective control group,slightly decreased
same,Food Intake Per Animal Per Day,[6]; interval 0-0.5 weeks,2.5 ± 0.05 g
same,Food Intake Per Animal Per Day,[6]; interval 0.5-1.0 weeks,2.3 ± 0.04 g
same,Food Intake Per Animal Per Day,[6]; interval 1.0-1.5 weeks,2.4 ± 0.1 g
same,Food Intake Per Animal Per Day,[6]; interval 1.5-2.0 weeks,2.4 ± 0.1 g
same,Food Intake Per Animal Per Day,[6]; interval 2.0-2.5 weeks,2.3 ± 0.1 g
same,Food Intake Per Animal Per Day,[6]; interval 2.5-3.0 weeks,2.3 ± 0.05 g
same,Food Intake Per Animal Per Day,[6]; interval 3.0-3.5 weeks,2.3 ± 0.1 g
same,Food Intake Per Animal Per Day,[6]; interval 3.5-4.0 weeks,*2.0 ± 0.1 g
same,Food Intake Per Animal Per Day,[6]; interval run-in,2.5 ± 0.5 g
same,"food intake, in words",[6]; last time point,"slight, but significant, decrease"
same,"body weights, in words","[7]; last time point (4 weeks), within group",significantly reduced
same,Body Weight,[7]; week 0,22.3 ± 1.3 g
same,Body Weight,[7]; week 0.5,22.5 ± 1.0 g
same,Body Weight,[7]; week 1,22.6 ± 1.0 g
same,Body Weight,[7]; week 1.5,21.8 ± 1.1 g
same,Body Weight,[7]; week 2,21.9 ± 1.2 g
same,Body Weight,[7]; week 2.5,21.9 ± 1.3 g
same,Body Weight,[7]; week 3,*21.6 ± 1.1 g
same,Body Weight,[7]; week 3.5,*21.3 ± 1.2 g
same,Body Weight,[7]; week 4,*21.4 ± 1.2 g
same,Organ and Tissue Weights: Fat (gonadal fat),"[8]; E3L mice, HC diet, end of four-week treatment, mean ± SD",*0.24 ± 0.06 g
same,Organ and Tissue Weights: Brain,"[8]; mouse, in vivo",0.44 ± 0.02 g
same,Organ and Tissue Weights: Heart,"[8]; mouse, in vivo",0.14 ± 0.01 g
same,Organ and Tissue Weights: Liver,"[8]; mouse, in vivo",0.91 ± 0.16 g
same,Organ and Tissue Weights: Lung,"[8]; mouse, in vivo",0.19 ± 0.02 g
same,"gonadal fat weight, in words",[8]; relative to the oral vehicle group,significantly lower
same,Plasma Alanine Amino Transferase Activity,[9],*68.6 ± 17.6 U/L
same,"plasma leptin levels, in words","[10]; at 14 days, relative to the oral vehicle control group",lower
same,Plasma Leptin Levels,"[10]; day 0, four hour fasting",4.7 ± 2.3 ng/mL
same,Plasma Leptin Levels,"[10]; day 14, four hour fasting",^#7.3 ± 3.1^ ng/ml
same,Plasma Leptin Levels,"[10]; day 28, four hour fasting",6.1 ± 4.6 ng/mL
same,"IDL/LDL particle size, in words",[11],slight shift toward larger IDL/LDL particles
same,"VLDL fraction of plasma lipoprotein profile, in words",[11],increase
same,"plasma HB levels, in words","[12]; at 28 days, compared to the oral vehicle control group",significantly lower
same,Plasma Ketone Body (HB) levels,"[12]; day 0, 4-hour fasting",0.79 ± 0.19 mM
same,Plasma Ketone Body (HB) levels,"[12]; day 14, 4-hour fasting",0.23 ± 0.09 mM
same,Plasma Ketone Body (HB) levels,"[12]; day 28, 4-hour fasting",^#0.38 ± 0.10^ mM
